Tested on: BALB/c mice
Experiment: Drug effect durability: serum glucose concentration after hypodermic injection
Assay type: in vivo
Conditions: 10 hours after administration under the dorsal skin, 15 μg insulin, fasted mice
Experimental: A particulate preparation enclosing 15 μg (WAKO) of insulin prepared in a method of example 9 was dispersed in 100 μL of normal saline (Otsuka), and was administered to 7-week-old male BALB/c mice (weighing 19 to 24 g) after fasting for 12 hours, under the dorsal skin by using 29 G injection needle (Terumo) (in the control group, 100 μL of normal saline (Otsuka) dissolving 15 μg of insulin was used). After administration, animals were kept fasted in individual cages, and blood samples collected from the caudal artery before and after administration were tested by biochemical automatic analyzer (Fuji Drychem 3500V of Fuji Film), by using measuring slide (GLU-WIII of Fuji Film), and changes of glucose concentration were measured at time intervals, and the average of serum glucose concentration changes of two animals each was calculated.

For insulin, the “serum glucose concentration relative to level before administration” value was 80%.

— patent US20080145432A1, “Fine Particle and Pharmaceutical Preparation” (priority 2005, published 2008)
